The source of these data is paper PMC2009863, “Pharmacokinetic considerations in testing hypoxic cell radiosensitizers in mouse tumours” (British Journal of Cancer, 1979).

Series [1] is described as follows: Acute toxicity LD50/2d of MIS and Ro-05-9963. To be noted: mouse, in vivo. The source says: (§1) Several groups are now pursuing such a goal (Adams, 1977; Brown et al., 1978; Wardman, 1977). […] Specifically the two ques- tions were: (a) How much does the plasma half-life affect the peak plasma level? (b) How much does the plasma half-life affect the tumour/plasma ratio of drug concentrations? MATERIALS AND METHODS A description of the procedures for implanta- tion of tumours, and irradiation and assay of the viability of the tumour cells has been published previously (Brown, 1975). Brieflv, the EMT6/St/lu tumour was transplanted into 3-month-old, syngeneic BALB/c female mice, weighing 20-25 g, and irradiated at a diameter of 6-7 mm. Immediately after irradiation the tumours were removed and minced. […] Plasma (or whole blood) and tumour levels of 2-nitroimidazoles were determined in different ways in the two laboratories rep- resented. In the first method, represented in Tables I and II and Fig. 1, tumour and plasma levels were determined on killing of individual mice, and were measured spectrophotomet- rically using UV absorption at 318 nm. […] Tumour levels were determined by preparing a 20% (w/v) homogenate of tumour in distilled water, and adding a 0 4 ml aliquot of homogenate to 2-6 ml absolute ethanol as described above. […]

For series [2] the following is noted: cited from earlier work.
For series [3] the following is noted: cited from earlier work; for tumour concentration as % of corresponding plasma concentration: clinical studies, HPLC, after MIS administration, ref Wiltshire et al.
Text in series [4]: as §1, with “minced. The only modification was that the single-cell suspensions were prepared by a 30 min disaggregation using an enzyme "'cock- tail" of 0-05% pronase, 0.02% DNAase and 21 0 02% collagenase (Brown et al., in prepara- tion). Cell viability was assayed by plating appropriate dilutions of the tumour cells into Waymouth's medium containing 15% foetal calf serum in polystyrene Petri dishes, and counting colonies 13 days later. […] Bilateral kidney ligation was performed on anaesthetized mice by exteriorizing the kidneys through a 1 cm incision in the skin and abdominal wall and tying a ligature around the renal artery and vein at the renal pelvis.” for “minced.”

Series [5] is described as follows: Whole blood MIS and Ro-05-9963 by HPLC after MIS in control, sham-operated and kidney-ligated mice. To be noted: for half-life: mouse, in vivo, 5 mmol/kg, plasma half-life. The source says:
(§2) Several groups are now pursuing such a goal (Adams, 1977; Brown et al., 1978; Wardman, 1977). […] Specifically the two ques- tions were: (a) How much does the plasma half-life affect the peak plasma level? (b) How much does the plasma half-life affect the tumour/plasma ratio of drug concentrations? MATERIALS AND METHODS A description of the procedures for implanta- tion of tumours, and irradiation and assay of the viability of the tumour cells has been published previously (Brown, 1975). Brieflv, the EMT6/St/lu tumour was transplanted into 3-month-old, syngeneic BALB/c female mice, weighing 20-25 g, and irradiated at a diameter of 6-7 mm. Immediately after irradiation the tumours were removed and minced. The only modification was that the single-cell suspensions were prepared by a 30 min disaggregation using an enzyme "'cock- tail" of 0-05% pronase, 0.02% DNAase and 21 0 02% collagenase (Brown et al., in prepara- tion). Cell viability was assayed by plating appropriate dilutions of the tumour cells into Waymouth's medium containing 15% foetal calf serum in polystyrene Petri dishes, and counting colonies 13 days later. […] Bilateral kidney ligation was performed on anaesthetized mice by exteriorizing the kidneys through a 1 cm incision in the skin and abdominal wall and tying a ligature around the renal artery and vein at the renal pelvis. The abdominal incision, which was adjoining and parallel to the line of attach- ment of the abdominal wall with the dorsal muscles, was then closed tightly with 4 or 5 stitches, and the skin incision closed with metal clips. The sham operation was identical in all respects except for ligation of the renal artery and vein. […] Plasma (or whole blood) and tumour levels of 2-nitroimidazoles were determined in different ways in the two laboratories rep- resented. In the first method, represented in Tables I and II and Fig. 1, tumour and plasma levels were determined on killing of individual mice, and were measured spectrophotomet- rically using UV absorption at 318 nm. This measures the total concentration of all 2-nitroimidazoles in the sample. The pro- cedure used was a modification of that described by Chapman et al. (1974). To measure plasma levels, 0 4 ml of plasma (collected from heparinized whole blood by cardiac puncture at the time of killing) was added to 2-6 nil absolute ethanol. The mixture was vortexed for 1 min, allowed to stand for 10 min and then centrifuged for 5 min at high speed (1000 g). Tumour levels were determined by preparing a 20% (w/v) homogenate of tumour in distilled water, and adding a 0 4 ml aliquot of homogenate to 2-6 ml absolute ethanol as described above. […] At appropriate times after MIS administration, serial blood samples were taken from the tail of the same mouse. Duplicate 5 /A samples were collected in Microcap pipettes (Drummond Scientific Company), mixed with 45 µl water and stored at -20?C. Finally (usually at 10-12-5 h) the mice were bled by cardiac puncture and the undiluted heparinized whole blood was stored at -20?C.

A short description of series [6]: Plasma and tumour levels of total 2-nitroimidazoles, UV spectrophotometric assay at 318 nm, EMT6 tumour-bearing mice, normal or bilateral kidney ligation. The following applies: for Plasma concn. / Tumour concn.: Table I, 5 mmol/kg i.p.; for Plasma concn. / Tumour concn. / Plasma concentration / Tumour concentration: individual mice; for Plasma concentration, Mean / Tumour concentration, Mean / Plasma concentration / Tumour concentration: Table II, 5 mmol/kg.
Text: as §2

On the set-up of series [7]: method as in Adams et al., 1976; Brown et al., 1978. The following applies: ref Adams et al., 1976; Brown et al., 1978; cited from earlier work.
Series [8] has as its system V-79 cells. To be noted: cited from earlier work.
Where [9] appears, read: BKL Yes, 38 min after injection.

Several values for one entry are separate records, joined by “and”; a condition that tells them apart may be missing. Equal entries are not always repeated. Where two headings read alike, the source gives them in different places.

The LD50 is the dose expected to kill half of the subjects tested. Read a high LD50 as a less toxic substance. Broadly, the half-life is the time needed for the level to fall by half in the phase considered. High values mean slow loss, low ones fast loss. As to `COCC(O)Cn1ccnc1[N+](=O)[O-]` (stereo not drawn) [MIS, 1-(2-nitroimidazol-1-yl)-3-methoxypropan-2-ol], the LD50 at 2 d in series [1] turned out to be 1830 mg/kg. Moreover, the “uptake of (2-14C) MIS as % of plasma concentration” value in series [2] (MT mouse tumour and some normal mouse tissues, particularly at less than 6 h, ref Flockhart et al. (1978c)) was “less than 100%”. Besides, in series [2] (different mouse tumours, ref McNally et al. (1978)), the “tumour concentration as % of that in blood” value is recorded as 18-72%. Further, the “tumour concentration as % of corresponding plasma concentration” value in series [3] (1978, Workman et al., 1978b) was 50-70%. The “tumour concentration as % of plasma levels” value in series [3] (human tumours, ref Gray et al., 1976, Dische et al., 1977, Urtasun et al.) is 42-107%. In series [3] (plasma, ref Foster et al., 1975, Dische et al., 1977, Wiltshire et al., 1978, Workman et al., 1978b), the half-life in man is around 12 h. Besides, in series [4] (9 h after MIS injection, controls), the “rectal temperature below uninjected mice” value is at most 3 °C. The “rectal temperature below the uninjected level” value in series [4] (9 h after MIS injection, kidney-ligated mice) was determined as 7 °C. This compound also yielded a rectal temperature drop in series [4] (first 5 h after MIS injection, all 3 groups) of 5.0 °C. For the same compound, the half-life in series [5] (BALB/c, bilateral kidney ligation before injection) is 10 to 11 h; in series [5] (BALB/c, normal mice), around 2 h; in series [5] (ip, bilateral kidney ligation before injection), 10 h. The “glucuronide conjugates of MIS and Ro-05-9963 in plasma” value in series [5] (normal and sham-operated mice after MIS) is “not found”.
Regarding `O=[N+]([O-])c1nccn1CC(O)CO` (stereo not drawn) [Ro-05-9963, 1-(2-nitroimidazol-1-yl)-2,3-pro-pandiol], the “tumour concentration as % of corresponding plasma concentration” value in series [3] (1978, Workman et al., 1978b) is 50-70%. Also, in series [6] (EMT6 tumour), the “tumour levels lower than plasma concentration” value is listed as 30-40%. This compound showed a plasma half-life in series [6] (Fig. 1, normal BALB/c mice, equal peak plasma levels: MIS 5 mmol/kg, Ro-05-9963 10 mmol/kg i.p.) of 0.55 h. In addition, the Plasma concn. was 2 to 8 mM and 2 to 4 mM and 2 to 6 mM in series [6] (30 min after inj.); 2-4 mM (2×) and 2-5 mM and 0-88 mM in series [6] (37.5 min after inj.); 1 to 5 mM and 0 to 38 mM and 1 to 2 mM in series [6] (45 min after inj.). The Tumour concn. is 0-77 mM and 1.5 mM and 1-1 mM in series [6] (30 min after inj.); 2-4 mM and 1-7 mM (2×) in series [6] (37.5 min after inj.); 0 to 74 mM and 0 to 76 mM and 0 to 25 mM in series [6] (45 min after inj.). Besides, the “Plasma concentration, Mean” value was 1000 to 4000 µM in series [6] (BKL No, 38 min after injection) and 4000 to 8000 µM in series [6] (BKL Yes, 6 h after injection). In addition, the “Tumour concentration, Mean” value in series [6] (BKL No, 38 min after injection) was 1-1 mM; in series [6] (BKL Yes, 6 h after injection) it was 2 to 8 mM. For the same compound, the Plasma concentration is 0 to 42 mM and 0 to 51 mM and 1 to 93 mM and 2 to 16 mM and 2 to 36 mM and 1 to 27 mM in series [6] (BKL No, 38 min after injection); 4.7 mM (2×) and 5.4 mM and 4-9 mM in series [6] (setting [9]); 5.9 mM and 4 to 6 mM and 4 to 7 mM in series [6] (BKL Yes, 6 h after injection). Moreover, the Tumour concentration in series [6] (BKL No, 38 min after injection) is 0 to 24 mM and 0 to 25 mM and 2 to 35 mM and 1 to 30 mM and 1 to 58 mM and 0 to 90 mM; in series [6] (setting [9]), 4.3 mM and 2 to 4 mM and 2 to 8 mM and 1 to 6 mM; in series [6] (BKL Yes, 6 h after injection) it was 2 to 3 mM and 2 to 9 mM and 3 to 7 mM. The “plasma and tumour concentrations less than those of MIS, factor” value in series [6] (equimolar injected doses, normal mice) is recorded as at least 2. Besides, the “lipophilicity compared with MIS” value in series [7] is “considerably less lipophilic”. Further, the “radiosensitizing effectiveness compared with MIS” value in series [8] (V-79 cells in vitro, ref Adams et al. (1976)) is given as “slightly less effective”; in series [8] (in vitro, ref Flockhart et al. (1968b)), “slightly more so”. For the same compound, the “proportion of Ro-05-9963 to total non-conjugated 2-nitroimidazoles” value in series [5] (38 min after MIS injection, control and nephrectomized mice) is 5%; in series [5] (6.5 h after MIS injection, nephrectomized mice), 22%; in series [5] (6.5 h after MIS injection, normal mice) it was 24%.
